Tested on: HIV-1LAI
Assay: Antiviral MTT assay in MT-2 cells exposed to HIV-1LAI
Format: cell-based

Compound	fold loss of antiviral activity compared to 22
COc1ccc(S(=O)(=O)N(CC(C)C)C[C@@H](O)[C@H](Cc2ccccc2)NC(=O)O[C@@H]2C[C@@H]3[C@H](OC)CO[C@@H]3C2)cc1 [Inhibitor 25, (3S,3aS,5R,6aR)-3-Methoxyhexahydro-2H-cyclopenta[b]furan-5-yl [(2S,3R)-3-Hydroxy-4-(N-iso-butyl-4-methoxyphenylsulfonamido)-1-phenylbutan-2-yl]carbamate]	~5 fold
CC(C)CN(C[C@@H](O)[C@H](Cc1ccccc1)NC(=O)O[C@@H]1C[C@@H]2[C@H](O)CO[C@@H]2C1)S(=O)(=O)c1ccc(N)cc1 [Inhibitor 23, (3S,3aR,5R,6aR)-3-Hydroxyhexahydro-2H-cyclopenta[b]furan-5-yl [(2S,3R)-4-(4-Amino-N-isobutylphenylsulfonamido)-3-hydroxy-1-phenylbutan-2-yl]carbamate]	3 fold
